Test results from patent US11198699B2 (ALIGOS THERAPEUTICS, INC., priority 2019, dated 2021).

Legend:
PRMT5/MEP50 [1] = biological target: T1, PRMT5/MEP50 (Homo sapiens (Human), UniProt O14744); assay: PRMT5/MEP50 enzyme inhibition assay, Assay 1 (radioisotope filter binding, 3H-SAM, histone H2A); format: biochemical; conditions: 1 μM 3H-SAM, 5 μM histone H2A, 60 min at 30° C.
Method: Compounds were tested for inhibition of methyltransferase activity in a radioisotope filter binding assay, similar to previously described in A selective inhibitor of PRMT5 with in vivo and in vitro potency in MCL models. Chan-Penebre et al., Nat Chem Biol. (2015) 11(6):432-7. In the standard PRMT5/MEP50 enzyme inhibition assay, compounds were tested in a 10-dose IC50 mode with 3- or 5-fold serial dilution, in singlet, starting at 1, 10, or 100 μM. Control compound, SAH (S-(5′-Adenosyl)-L-homocysteine), was tested in 10-dose IC50 mode with 3-fold serial dilution starting at 100 μM. Reactions were carried out at 1 μM 3H-SAM (PerkinElmer) and 5 μM histone H2A as substrates for methyl transfer. Following a 60 min incubation at 30° C., the reaction was stopped with 20% TCA. Each reaction was spotted on a filter plate (Multiscreen FB Filter plate, Millipore) and washed 5 times in PBS, after which scintillation fluid was added and signal was detected in a scintillation counter. Percent enzyme activity was calculated based on no inhibitor DMSO control as 100% activity. EC50 values were determined in GraphPad Prism 8 using the [inhibitor] vs. response—Variable slope (four parameters) function.
(§1) Compounds of Formula (I) show activity in this assay. A value of ‘A’ in the table below indicates an IC50 of <1 nM, a value of ‘B’ indicates an IC50≥1 nM to ≤100 nM, and a value of ‘C’ indicates an IC50 value of >100 nM.

[2] = system: A549 lung carcinoma cells; assay: Cell proliferation assay, A549 (CellTiter-Glo, 7 days); format: cell-based; conditions: A549, 7 days, CellTiter-Glo 2.0
Method: (§2) HepG2 hepatoma cells (ATCC, HB-8065) were maintained in DMEM with high glucose (Lonza, 12-914F) supplemented with 10% fetal bovine serum (FBS; Biowest, S181B-500) and 2 mM L-glutamine (Biowest, X0551-100) at 37° C. and 5% CO2. A549 lung carcinoma cells (ATCC, CCL-185) were maintained in F-12K medium (ThermoFisher 21127030) supplemented with 10% FBS at 37° C. and 5% CO2. Exponentially growing HepG2 or A549 were plated in white, clear-bottom 96-well plates (Corning, 3903) at a cell density of 2000 (HepG2) or 350 (A549) cells per well in 199 μL of HepG2 medium. Next, 1 μL of a 5-fold 9-point dilution series of test compound in DMSO was added to the different wells. Cells were incubated at 37° C. 5% CO2 for 7 days. Cell viability was assessed on day 7 with the CellTiter-Glo 2.0 Cell Viability assay kit (Promega, G9243) to quantify the intracellular amounts of ATP: first, 100 μL of cell culture medium was removed from each well, next 100 μL of CellTiter-Glo® 2.0 Reagent was added and plates were shaken for 2 minutes on an orbital shaker. After 10 minutes stabilization at room temperature, read-out was performed on a ThermoFisher VarioSkan Lux plate reader. Counts were normalized to DMSO control (0% inhibition) and the cytotoxic control (100% inhibition) and EC50 values were determined in GraphPad Prism 8 using the [Agonist] vs. response—Variable slope (four parameters) function.
(§3) As shown by the data of Table 2, compounds of Formula (I) have activity in this assay. A value of ‘A’ in the table below indicates an EC50 of <20 nM, a value of ‘B’ indicates an EC50≥20 nM to <100 nM, a value of ‘C’ indicates an EC50 value of EC50≥100 nM to <1000 nM and a value of ‘D’ indicates an EC50≥1000 nM

HepG2 hepatoma cells = assay: Cell proliferation assay, HepG2 (CellTiter-Glo, 7 days); format: cell-based; conditions: HepG2, 7 days, CellTiter-Glo 2.0
Method: as §2, §3

PRMT5/MEP50 [3] = biological target: T1, PRMT5/MEP50; assay: PRMT5/MEP50 enzyme inhibition assay, Assay 2 (384-well, MALDI mass spectrometry, histone H4 1-21 peptide); format: biochemical; conditions: 1 μM SAM, 0.1 μM histone H4 1-21 peptide, 18-hour incubation at rt
Method: Compounds were tested for inhibition of methyltransferase activity in 384-well plate assay format using mass spectrometry technology. In this enzyme inhibition assay, compounds were tested in a 11-dose IC50 mode with 3-serial dilution, in duplicate, starting at 1, 10, or 100 μM. Reactions were carried out at 1 μM SAM and 0.1 μM histone H4 1-21 peptide as substrates for methyl transfer. Following an 18-hour incubation at rt, the reaction was stopped with 0.5% formic acid. Products of the reaction were captured while unreacted substrates were washed away, prior to MALDI mass spectrometry detection and analysis. Percent enzyme activity was calculated based on no inhibitor DMSO control as 100% activity. EC50 values were determined in GraphPad Prism 8 using the [inhibitor] vs. response—Variable slope (four parameters) function.
as §1

T1 sequence (O14744 whole entry): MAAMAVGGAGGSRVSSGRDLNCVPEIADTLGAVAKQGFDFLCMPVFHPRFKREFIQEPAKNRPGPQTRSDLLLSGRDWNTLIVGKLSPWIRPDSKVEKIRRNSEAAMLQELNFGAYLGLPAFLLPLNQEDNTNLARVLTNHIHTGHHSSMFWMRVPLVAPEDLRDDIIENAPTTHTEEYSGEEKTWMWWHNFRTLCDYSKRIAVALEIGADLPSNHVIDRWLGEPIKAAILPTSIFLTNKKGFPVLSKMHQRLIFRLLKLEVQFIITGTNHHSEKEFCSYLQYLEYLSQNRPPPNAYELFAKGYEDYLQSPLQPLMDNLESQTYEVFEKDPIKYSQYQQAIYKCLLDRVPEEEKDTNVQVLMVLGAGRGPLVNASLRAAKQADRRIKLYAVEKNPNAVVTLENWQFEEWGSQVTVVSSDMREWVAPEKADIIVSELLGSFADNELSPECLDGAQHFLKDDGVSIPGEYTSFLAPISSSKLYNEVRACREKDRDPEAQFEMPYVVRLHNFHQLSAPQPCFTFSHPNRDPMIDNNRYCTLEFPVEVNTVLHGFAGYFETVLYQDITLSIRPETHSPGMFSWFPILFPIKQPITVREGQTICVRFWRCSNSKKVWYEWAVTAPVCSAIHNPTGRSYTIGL
T1 sequence (Q9BQA1 whole entry partner): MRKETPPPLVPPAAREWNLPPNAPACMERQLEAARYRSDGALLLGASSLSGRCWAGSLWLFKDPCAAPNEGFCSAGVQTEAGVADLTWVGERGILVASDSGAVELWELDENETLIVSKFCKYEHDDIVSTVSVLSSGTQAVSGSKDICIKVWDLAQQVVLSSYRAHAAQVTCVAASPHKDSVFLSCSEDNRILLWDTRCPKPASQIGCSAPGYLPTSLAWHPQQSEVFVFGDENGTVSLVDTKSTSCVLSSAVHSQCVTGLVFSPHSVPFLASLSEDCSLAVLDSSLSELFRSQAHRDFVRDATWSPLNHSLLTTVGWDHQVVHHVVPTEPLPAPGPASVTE

IC50 (PRMT5/MEP50 [1])	EC50 [2]	EC50 (HepG2 hepatoma cells)	IC50 (PRMT5/MEP50 [3])	EC50 ([2]; Homo sapiens, A549, 168 h)	EC50 (HepG2 hepatoma cells; Homo sapiens, 168 h)	SMILES
< 1 nM	100 to 1000 nM	100 to 1000 nM	< 1 nM	–	–	C[C@H]1[C@H](CCc2ccc3ccc(N)nc3c2)[C@@H](O)[C@@H](O)[C@@H]1n1ccc2c(N)ncnc21 [Compound 5]
< 1 nM	–	–	< 1 nM	< 20 nM	< 20 nM	C[C@]1(CCc2ccc3ccc(N)nc3c2)C[C@@H](n2ccc3c(N)ncnc32)[C@H](O)[C@@H]1O [Compound 12, (1S,2R,3S,5R)-5-(4-amino-7H-pyrrolo[2,3-d]pyrimidin-7-yl)-3-(2-(2-aminoquinolin-7-yl)ethyl)-3-methylcyclopentane-1,2-diol]
< 1 nM	< 20 nM	< 20 nM	< 1 nM	–	–	C=C1[C@@H](n2ccc3c(N)ncnc32)[C@H](O)[C@H](O)[C@H]1CCc1ccc2cc(Br)c(N)nc2c1 [Compound 4]
< 1 nM	< 20 nM	< 20 nM	< 1 nM	–	–	Nc1nc2cc(CC[C@@]34C[C@@H]3[C@@H](n3ccc5c(N)ncnc53)[C@H](O)[C@@H]4O)ccc2cc1Br [Compound 2]
1 to 100 nM	≥ 1000 nM	≥ 1000 nM	1 to 100 nM	–	–	C[C@@H]1[C@H](CCc2ccc3ccc(N)nc3c2)[C@@H](O)[C@@H](O)[C@@H]1n1ccc2c(N)ncnc21 [Compound 6]
< 1 nM	–	–	< 1 nM	< 20 nM	< 20 nM	Cc1cc2ccc(CC[C@@]3(C)C[C@@H](n4ccc5c(N)ncnc54)[C@H](O)[C@@H]3O)cc2nc1N [Compound 10, (1S,2R,3S,5R)-3-[2-(2-amino-3-methyl-7-quinolyl)ethyl]-5-(4-aminopyrrolo[2,3-d]pyrimidin-7-yl)-3-methyl-cyclopentane-1,2-diol]
< 1 nM	–	–	< 1 nM	< 20 nM	< 20 nM	Nc1ccc2ccc(CC[C@@]34C[C@@H]3[C@@H](n3ccc5c(N)ncnc53)[C@H](O)[C@@H]4O)cc2n1 [Compound 13, (1R,2R,3S,4R,5S)-4-(4-aminopyrrolo[2,3-d]pyrimidin-7-yl)-1-[2-(2-amino-7-quinolyl)ethyl]bicyclo[3.1.0]hexane-2,3-diol]

Continued, compound first:

SMILES	IC50 (PRMT5/MEP50 [1])	EC50 [2]	EC50 (HepG2 hepatoma cells)	IC50 (PRMT5/MEP50 [3])	EC50 ([2]; Homo sapiens, A549, 168 h)	EC50 (HepG2 hepatoma cells; Homo sapiens, 168 h)
Nc1nc2cc(OC[C@H]3C[C@@H](n4ccc5c(N)ncnc54)[C@H](F)[C@@H]3O)ccc2cc1Br [Compound 11, (1R,2S,3R,5R)-5-[(2-amino-3-bromo-7-quinolyl)oxymethyl]-3-(4-aminopyrrolo[2,3-d]pyrimidin-7-yl)-2-fluoro-cyclopentanol]	> 100 nM	–	–	1 to 100 nM	≥ 1000 nM	100 to 1000 nM
Nc1nc2cc(OC[C@@]3(F)C[C@@H](n4ccc5c(N)ncnc54)[C@H](O)[C@@H]3O)ccc2cc1Br [Compound 9, (1S,2S,3S,5R)-3-[(2-amino-3-bromo-7-quinolyl)oxymethyl]-5-(4-aminopyrrolo[2,3-d]pyrimidin-7-yl)-3-fluoro-cyclopentane-1,2-diol]	< 1 nM	–	–	< 1 nM	20 to 100 nM	20 to 100 nM
Nc1ncnc2c1ccn2[C@H]1[C@H](O)[C@H](O)[C@]2(C(O)c3ccc(Cl)c(Cl)c3)C[C@H]12 (single isomer, unassigned) [Compound 7, (1R,2R,3S,4R,5S)-4-(4-aminopyrrolo[2,3-d]pyrimidin-7-yl)-1-[(R or S)-(3,4-dichlorophenyl)-hydroxy-methyl]bicyclo[3.1.0]hexane-2,3-diol]	< 1 nM	100 to 1000 nM	–	1 to 100 nM	–	100 to 1000 nM
C=C1[C@@H](n2ccc3c(N)ncnc32)[C@H](O)[C@H](O)[C@H]1CCc1ccc2cc(Br)c(Cl)nc2c1 [Compound 3]	> 100 nM	100 to 1000 nM	100 to 1000 nM	> 100 nM	–	–
C[C@]1(CCc2ccc3cc(C4CC4)c(N)nc3c2)C[C@@H](n2ccc3c(N)ncnc32)[C@H](O)[C@@H]1O [Compound 14, (1S,2R,3S,5R)-3-[2-(2-amino-3-cyclopropyl-7-quinolyl)ethyl]-5-(4-aminopyrrolo[2,3-d]pyrimidin-7-yl)-3-methylcyclopentane-1,2-diol]	< 1 nM	–	–	< 1 nM	< 20 nM	< 20 nM
C[C@]1(/C=C/c2ccc3cc(Br)c(N)nc3c2)C[C@@H](n2ccc3c(N)ncnc32)[C@H](O)[C@@H]1O [Compound 1]	< 1 nM	–	–	–	–	–
Nc1ncnc2c1ccn2[C@H]1[C@H](O)[C@H](O)[C@]2(C(O)c3ccc(Cl)c(Cl)c3)C[C@H]12 (single isomer, unassigned) [Compound 8, (1R, 2R, 3S, 4R, 5S)-4-(4-aminopyrrolo[2,3-d]pyrimidin-7-yl)-1-[(S or R)-(3,4-dichlorophenyl)-hydroxy-methyl]bicyclo[3.1.0]hexane-2,3-diol]	1 to 100 nM	≥ 1000 nM	100 to 1000 nM	> 100 nM	–	–
